# Source: US20080200392A1, “Methods for Treating Parkinson's Disease” (priority 2005, published 2008)
# No end group written: not given here.
# Key:
# human C1q = assay: Reverse ELISA: inhibition of PAP immune complex binding to C1q coated plates; conditions: for OD 405 nm: PAP pre-incubated 1 h with peptide or C1q, 30 min on C1q coated plates, lower OD = more inhibition, positive control 2.355; for inhibition of C1q binding, ranking in words: among the peptides of Table 1
# Text: (§1) For this reason, a “reverse ELISA” technique was used to assess binding of the Fc region to ligands that bind to immune complexed IgG Fc. In a reverse ELISA, the enzyme (e.g., HRP) is not covalently conjugated to the Fc portion of the secondary antibody. Rather, a preformed immune complex of peroxidase-rabbit (or mouse) anti-peroxidase IgG (“PAP” complex) is used. […] In these experiments, an Fc CH2-CH3 cleft binding ligand (e.g., purified human C1q) was bound to microwell plates. In the absence of competitor, PAP complexes bound to the immobilized ligand and the reaction between HRP and its substrate produced a signal. This signal was reduced by polypeptides and compounds provided herein that inhibited PAP binding to the immobilized ligand.
# PAP complexes were formed mixing 2 μl of rabbit anti-peroxidase (Sigma Chemicals, St. Louis, Mo.) with 50 μl of peroxidase (Sigma-Aldrich, St. Louis, Mo.) in 1 ml distilled water. PAP (100 μl) were pre-incubated with 100 μl of peptide for one hour, 100 μl were pre-incubated with 100 μl of peptide or human C1q (Quidel Corp., San Diego, Calif.) for one hour. The C1q/PAP and peptide/PAP mixtures (100 μl) were incubated with C1q coated plates for 30 minutes. After washing, plates were incubated with ATBS (Quidel Corp.) for 15 minutes and read at 405 nm.
# FcγIIa = assay: Reverse ELISA: inhibition of PAP immune complex binding to FcγIIa coated plates; conditions: PAP pre-incubated 1 h with peptide, 1 h on FcγIIa coated plates; lower = more inhibition; positive control 1.599
# Text: as §1
# (§2) Once the reverse ELISA protocol was established using the C1q assay, the assay was redesigned using FcγIIa, FcγIIb, and FcγIII in place of C1q. Highly purified FcγIIa, FcγIIb and FcγIII were immunoabsorbed onto plastic microwells. After optimizing the FcγR reverse ELISA system, simple competitive inhibition experiments using polypeptides provided herein were conducted to investigate their ability to inhibit binding of immune complexes to purified FcγR.
# (§3) Falcon microtiter plates were coated with 1:10 dilutions of highly purified FcγIIa, FcγIIb and FcγIII and incubated for 24 hours. The plates were washed and then blocked with 5×BSA blocking solution (Alpha Diagnostic International, San Antonio, Tex.) for 24 hours. PAP immune complexes were formed as described above. PAP (100 μl) were pre-incubated with 100 μl of peptide for one hour. PAP/peptide mixtures were added to the FcγR coated plates and incubated for one hour. After washing, plates were incubated with ABTS substrate for 15 minutes and read at 405 nm.
# FcγIIb = assay: Reverse ELISA: inhibition of PAP immune complex binding to FcγIIb coated plates; conditions: PAP pre-incubated 1 h with peptide, 1 h on FcγIIb coated plates; lower = more inhibition; positive control 1.394
# Text: as §1, §2, §3
# FcγIII = assay: Reverse ELISA: inhibition of PAP immune complex binding to FcγIII coated plates; conditions: PAP pre-incubated 1 h with peptide, 1 h on FcγIII coated plates; lower = more inhibition; positive control 1.588
# Text: as §1, §2, §3
# human wt α-synuclein = assay: Reverse ELISA: inhibition of immune complexed IgG (PAP) binding to wt α-synuclein; conditions: for Wt α-synuclein (read at 405 nm): PAP pre-incubated 1 h with peptide
# Method: PAP complexes were formed mixing 2 μl of rabbit anti-peroxidase (Sigma) with 50 μl of peroxidase (Sigma) in 1 ml distilled water. PAP (100 μl) were pre-incubated with 100 μl of peptide for one hour. Control PAP (200 μl) also was incubated for one hour. 100 μl of either PAP or PAP/peptide was added to Falcon microtiter plates that had been coated for 24 or 48 hours with 167 μg/ml human wt α-synuclein (Sigma-Aldrich), and the plates were incubated for 60 minutes. After washing, plates were incubated with ATBS for 30 minutes and then read at 405 nm.
# FcR = assay: FcγR reverse ELISA, overall statement on FcR binding to PAP; conditions: among the peptides of Table 2
# Method: as §2, §3
# IgG Fc = IgG Fc (Homo sapiens, UniProt P01857); assay: Alanine substitution effect on binding of SEQ ID NO:16 to IgG Fc; conditions: alanine substitution of SEQ ID NO:16 Val-13 or Trp-14
# Text: The indole ring of Trp-14 in SEQ ID NO:16 has a hydrophobic interaction with IgG Fc His-435. SEQ ID NO:16 also has hydrophobic packing with IgG Fc Met-252, Ile-253, Ser-254, His-435, and Tyr-436. Alanine substitution of IgG Fc Asn-434, His-435, or Tyr-436 disrupts binding (ΔΔG≧1.5 kcal/mol). Similarly, alanine substitution of SEQ ID NO:16 Val-13 or Trp-14 results in disruption of binding (ΔΔG≧2.0 kcal/mol).
# highly purified FcγIII = assay: reverse ELISA: PAP without competitor on FcγIII-coated plate
# highly purified FcγIIa = assay: reverse ELISA: PAP without competitor on FcγIIa-coated plate
# Chain of highly purified FcγIIa (P12318 34-317): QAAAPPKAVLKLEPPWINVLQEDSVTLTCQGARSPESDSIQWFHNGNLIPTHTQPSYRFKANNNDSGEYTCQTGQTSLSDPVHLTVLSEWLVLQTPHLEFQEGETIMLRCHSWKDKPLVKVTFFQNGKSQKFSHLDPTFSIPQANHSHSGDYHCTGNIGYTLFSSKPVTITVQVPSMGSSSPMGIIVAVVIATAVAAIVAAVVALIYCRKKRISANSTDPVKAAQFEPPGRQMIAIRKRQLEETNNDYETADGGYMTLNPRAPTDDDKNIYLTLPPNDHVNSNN
# highly purified FcγIIb = assay: reverse ELISA: PAP without competitor on FcγIIb-coated plate
# [1] = biological target: human wt α-synuclein (Sigma-Aldrich) (human) (UniProt P37840); assay: reverse ELISA: PAP without competitor on α-synuclein-coated plate (taken as the 24 h coating)
# [2] = biological target: preformed immune complex of peroxidase-rabbit anti-peroxidase IgG (PAP complex) (rabbit; horseradish) (UniProt P00433); assay: reverse ELISA competition: PAP pre-incubated with peptide, then on FcγIII-coated plate (competitor: immobilized FcγIII)
# Chain of preformed immune complex of peroxidase-rabbit anti-peroxidase IgG (PAP complex) (rabbit; horseradish) (P00433 31-338, one chain of several): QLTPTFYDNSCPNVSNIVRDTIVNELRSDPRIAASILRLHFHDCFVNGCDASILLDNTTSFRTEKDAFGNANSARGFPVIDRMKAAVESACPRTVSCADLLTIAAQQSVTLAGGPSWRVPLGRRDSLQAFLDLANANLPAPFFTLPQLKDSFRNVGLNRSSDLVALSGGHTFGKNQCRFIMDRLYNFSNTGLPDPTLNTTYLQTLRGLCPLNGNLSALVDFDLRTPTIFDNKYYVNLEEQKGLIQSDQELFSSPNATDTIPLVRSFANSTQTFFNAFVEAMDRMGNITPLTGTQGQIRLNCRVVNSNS
# [3] = biological target: preformed immune complex of peroxidase-rabbit anti-peroxidase IgG (PAP complex) (rabbit; horseradish) (UniProt P00433); assay: reverse ELISA competition: PAP pre-incubated with peptide, then on FcγIIa-coated plate (competitor: immobilized FcγIIa)
# [4] = biological target: preformed immune complex of peroxidase-rabbit anti-peroxidase IgG (PAP complex) (rabbit; horseradish) (UniProt P00433); assay: reverse ELISA competition: PAP pre-incubated with peptide, then on FcγIIb-coated plate (competitor: immobilized FcγIIb)
# [5] = biological target: preformed immune complex of peroxidase-rabbit anti-peroxidase IgG (PAP complex) (rabbit; horseradish) (UniProt P00433); assay: reverse ELISA competition: PAP pre-incubated with peptide, then on C1q-coated plate; signal is PAP bound to C1q (competitor: immobilized human C1q)
# [6] = biological target: preformed immune complex of peroxidase-rabbit anti-peroxidase IgG (PAP complex) (rabbit; horseradish) (UniProt P00433); assay: reverse ELISA competition: PAP pre-incubated with peptide, then on plate coated 24 h with human wt α-synuclein (competitor: immobilized α-synuclein)
# [7] = biological target: preformed immune complex of peroxidase-rabbit anti-peroxidase IgG (PAP complex) (rabbit; horseradish) (UniProt P00433); assay: reverse ELISA competition: PAP pre-incubated with peptide, then on plate coated 48 h with human wt α-synuclein (competitor: immobilized α-synuclein)
# [8] = plates coated 24 h with 167 μg/ml α-synuclein, positive control 1.433
# [9] = plates coated 48 h with 167 μg/ml α-synuclein, positive control […]
# Chain of preformed immune complex of peroxidase-rabbit anti-peroxidase IgG (PAP complex) (P00433 31-338, one chain of several): as above
molecule,measurement,setting,value
APPCAFHLGELVWCT (not fully specified; cysteine pairing not given here),OD 405 nm,human C1q,0.983
same,FcγIIa (read at 405 nm),FcγIIa,0.605
same,FcγIIb (read at 405 nm),FcγIIb,0.380
same,FcγIII (read at 405 nm),FcγIII,0.880
APPCARHLGELVWCT,OD 405 nm,human C1q,0.567
same,"inhibition of C1q binding, ranking in words",human C1q,next best result
same,FcγIIa (read at 405 nm),FcγIIa,0.956
same,FcγIIb (read at 405 nm),FcγIIb,0.768
same,FcγIII (read at 405 nm),FcγIII,0.709
APPCAWHLGELVWCT,OD 405 nm,human C1q,1.148
same,FcγIIa (read at 405 nm),FcγIIa,0.658
same,FcγIIb (read at 405 nm),FcγIIb,0.562
same,FcγIII (read at 405 nm),FcγIII,0.530
APPDCAWHLGELVWCT,OD 405 nm,human C1q,0.389
same,"inhibition of C1q binding, ranking in words",human C1q,"greatest inhibition of C1q binding, almost equaling C1q itself"
same,FcγIIa (read at 405 nm),FcγIIa,0.509
same,FcγIIb (read at 405 nm),FcγIIb,0.496
same,FcγIII (read at 405 nm),FcγIII,0.670
same,"inhibition of α-synuclein binding to PAP, ranking in words",human wt α-synuclein; among the peptides of Table 3,greatest inhibition of α-synuclein binding to PAP
same,Wt α-synuclein (read at 405 nm),human wt α-synuclein; [8],0.088
same,Wt α-synuclein (read at 405 nm),human wt α-synuclein; [9],0.136
same,"inhibition of FcR binding to PAP, ranking in words",FcR,greatest inhibition of FcR binding to PAP
same,"ΔΔG, disruption of binding",IgG Fc,≥ 2.0 kcal/mol
DCAFHLGELVWCT,OD 405 nm,human C1q,0.859
same,FcγIIa (read at 405 nm),FcγIIa,0.660
same,FcγIIb (read at 405 nm),FcγIIb,0.510
same,FcγIII (read at 405 nm),FcγIII,0.810
DCAWHLGELVWCT,OD 405 nm,human C1q,1.100
same,FcγIIa (read at 405 nm),FcγIIa,0.561
same,FcγIIb (read at 405 nm),FcγIIb,0.532
same,FcγIII (read at 405 nm),FcγIII,0.741
same,Wt α-synuclein (read at 405 nm),human wt α-synuclein; [8],0.111
same,Wt α-synuclein (read at 405 nm),human wt α-synuclein; [9],0.152
preformed immune complex of peroxidase-rabbit anti-peroxidase IgG (PAP complex) (from UniProt P00433 31-338) (antibody),OD 405 nm,highly purified FcγIII,1.59 OD 405 nm
same,OD 405 nm,highly purified FcγIIa,1.6 OD 405 nm
same,OD 405 nm,highly purified FcγIIb,1.39 OD 405 nm
same,OD 405 nm,[1],1.43 OD 405 nm
APPCAFHLGELVWCT (not fully specified; cysteine pairing not given here) [… (SEQ ID NO:15)],OD 405 nm,[2],0.88 OD 405 nm
same,OD 405 nm,[3],0.605 OD 405 nm
same,OD 405 nm,[4],0.38 OD 405 nm
same,OD 405 nm,[5],0.983 OD 405 nm
APPDCAWHLGELVWCT [… (SEQ ID NO:16)],OD 405 nm,[2],0.67 OD 405 nm
same,OD 405 nm,[3],0.509 OD 405 nm
same,OD 405 nm,[4],0.496 OD 405 nm
same,OD 405 nm,[5],0.389 OD 405 nm
same,OD 405 nm,[6],0.088 OD 405 nm
same,OD 405 nm,[7],0.136 OD 405 nm
DCAFHLGELVWCT [… (SEQ ID NO:3)],OD 405 nm,[2],0.81 OD 405 nm
same,OD 405 nm,[3],0.66 OD 405 nm
same,OD 405 nm,[4],0.51 OD 405 nm
same,OD 405 nm,[5],0.859 OD 405 nm
APPCARHLGELVWCT (not fully specified; cysteine pairing not given here) [… (SEQ ID NO:14)],OD 405 nm,[2],0.709 OD 405 nm
same,OD 405 nm,[3],0.956 OD 405 nm
same,OD 405 nm,[4],0.768 OD 405 nm
same,OD 405 nm,[5],0.567 OD 405 nm
APPCAWHLGELVWCT (not fully specified; cysteine pairing not given here) [… (SEQ ID NO:13)],OD 405 nm,[2],0.53 OD 405 nm
same,OD 405 nm,[3],0.658 OD 405 nm
same,OD 405 nm,[4],0.562 OD 405 nm
same,OD 405 nm,[5],1.15 OD 405 nm
